Several values for one entry are separate records, joined by “and”; a condition that tells them apart may be missing. Identical values can stand only once.
Key:
[1] = system: A375 human melanoma cells; assay: Cytotoxicity assay (MTT relative viability), A375 cells; type: cell-based; conditions: BSG and BO applied together, 72 hours, FIGS. 1A and 1B
Method: (§1) A375 human melanoma cells (obtained from Food Industry Research and Development Institute, Hsinchu, Taiwan, R.O.C. under accession number CCRC 60039) and normal human keratinocyte (HaCaT) cells (obtained from Dr. Lin P., Institute of Medical & Molecular Toxicology, Chung Shan Medical University, Taichung, Taiwan) were used for the test.
(§2) A375 and HaCaT cells were incubated in 96-well plates (Corning Incorporated COSTAR® 3599) at a density of 3×10^3 cells/well and 5×10^3 cells/well, respectively. After 24 hours, the cells were treated with various concentrations of bismuth subgallate (BSG) and borneol (BO) for 72 hours. The cytotoxicity effect of BSG and BO was estimated by the relative viability (%) of the cells, which was determined by measuring the reduction of tetrazolium salt MTT using a Microplate reader (Thermo Lab systems Multishkan Spectrum) at a test wavelength of 550 nm and a reference wavelength of 690 nm. The relative viability is calculated by the following equation: Relative Viability(%)=ODtestODcontrol×100 The results are represented by the means plus standard errors (Mean±SE) of five repetitions.

[2] = system: normal human keratinocyte (HaCaT) cells; assay: Cytotoxicity assay (MTT relative viability), HaCaT cells; type: cell-based; conditions: BSG and BO applied together, 72 hours, FIG. 2
Method: as §1, §2

Compound | lowest concentration at which reduction of relative viability of A375 cells is observed [1] [µg/mL] | concentrations at which cytotoxicity effect on HaCaT cells is observed (only at high concentrations) [2]
CC1(C)C2CCC1(C)C(O)C2 (stereo not drawn) [BO, borneol] | 2.5 | 
bismuth subgallate [BSG] | 17.5 | 140 µg/mL and 280 µg/mL
